Patent US20070122341A1, “Benzylideneaniline derivatives and their radioisotope labeled compounds for binding and imaging of beta-amyloid plaques” (SEOUL NATIONAL UNIVERSITY INDUSTRY FOUNDATION, priority 2005, published 2007)
Several values for one entry are separate records, joined by “and”; a condition that tells them apart may be missing. Equal entries are not always repeated.

Columns and labels:
Aβ1-40 aggregates = target: T1, Aβ1-40 aggregates (Homo sapiens, UniProt P05067); test: In vitro binding assay with Aβ1-40 aggregates, inhibition of [125I]3'-I-BTA-1 binding; conditions: for affinity to Aβ1-40 (in words): conclusion from Ki values of Table 2; for Ki: unlabeled compounds, Aβ1-40 aggregates 20 nM, [125I]3'-I-BTA-1 0.04 nM, 3 hr room temperature, Ki calculated from IC50
T1 construct: purchased Sigma
T1 sequence (P05067 672-711): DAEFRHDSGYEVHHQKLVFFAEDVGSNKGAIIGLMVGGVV
Description: Aggregated peptides were prepared using the solid form of peptides Aβ1-40 (purchased from Sigma) by a literature method (Klunk, W. E.; Wang, Y.; Huang, G-F.; Debnath, M. L.; Holt D. P.; Mathis, C. A. Uncharged thioflavin-T derivatives bind to amyloid-beta protein with high affinity and readily enter the brain. Life Sci. 2001, 69(13), […]). The aggregated Aβ1-40 peptide was aliquoted and stored at −70° C. Binding studies were performed according to the procedure described in the literature with some modifications (Zhuang, Z.-P.; Kung, M.-P.; Wilson, A.; Lee, C.-W.; Plossl, K.; Hou, C.; Holtzman, D. M.; Kung, H. F.; Structure-activity relationship of imidazo[1,2-a]pyridines as ligands for detecting β-amyloid plaques in the brain. J. Med. Chem. 2003; 46(2), 237-243). The Ki values of benzylideneaniline derivatives were evaluated with Aβ1-40 aggregates.
The reaction mixtures containing 100 μL of Aβ^1-40 aggregates (20 nM in the final mixture), 100 μL of benzylideneaniline derivatives (10^−5-10^−10 M in 50% ethanol), 100 μL of [^125I]3′-I-BTA-1 in 50% ethanol (0.04 nM in the final mixture), and 700 μL of phosphate buffered saline (pH=7.2) were incubated for 3 hr at room temperature, filtered through Whatman GF/B glass filters and washed twice with 3 mL of 10% EtOH. The filters were counted in a gamma-counter. Nonspecific binding was determined by reacting in the presence of 10 μM stilbene.

[1] = Biodistribution in normal mice; format: in vivo; conditions: 18F-labeled compounds, tail vein injection, ICR male mice; ratio of brain uptake (% ID/g) at 2 min over 30 min
Description: Biodistribution study of the ^18F-labeled compounds of Example 7 was performed with ICR male mice (weight range 27-28 g). 0.1 mL of a saline solution containing each ^18F-labeled benzylideneaniline compound A, B, C, D, E or F (37-74 kBq) was injected through the tail vein. The mice were sacrificed by decapitation at 2 min and 30 min time points post injection. The organs of interest, including blood, muscle, fat, heart, lung, liver, spleen, stomach, intestine, brain and bone, were separated and weighed, and the remaining radioactivity was counted with a NaI well counter.

Row | SMILES | affinity to Aβ1-40 (in words) (Aβ1-40 aggregates) | Ki (Aβ1-40 aggregates) [nM] | melting point [°C] | Brain uptake ratio [1]
1 | CNc1ccc(/N=C/c2ccc(F)cc2)cc1 [B, N-(4-fluorobenzylidene)-N′-methylbenzene-1,4-diamine] | have affinity to Aβ1-40 | 1040 | 106 to 107 | 5.4 ± 0.5
2 | CN(C)c1ccc(/N=C/c2ccc(F)cc2)cc1 [C, N-(4-fluorobenzylidene)-N′,N′-dimethylbenzene-1,4-diamine] | have affinity to Aβ1-40 | 149 | 191 to 192 | 2.9 ± 0.5
3 | COc1ccc(/N=C/c2ccc(F)cc2)cc1 [E, (4-fluorobenzylidene)-(4-methoxyphenyl)amine] |  | > 10000 | 92 to 93 | 4.2 ± 0.9
4 | O=C(O)c1cc(/N=C/c2ccc(F)cc2)ccc1O [F, 5-[(4-fluorobenzylidene)amino]-2-hydroxybenzoic acid] |  | > 10000 |  | 11.0 ± 2.0

The remaining lines, values ahead:

Row | affinity to Aβ1-40 (in words) (Aβ1-40 aggregates) | Ki (Aβ1-40 aggregates) [nM] | melting point [°C] | Brain uptake ratio [1] | SMILES
5 | have affinity to Aβ1-40 | 304 | 169 to 170 | 8.7 ± 1.7 | Nc1ccc(/N=C/c2ccc(F)cc2)cc1 [Compound A, N-(4-fluorobenzylidene)benzene-1,4-diamine]
6 | low binging affinity | > 10000 | 148 to 149 | 24.3 and 24.3 ± 4.6 | Oc1ccc(/N=C/c2ccc(F)cc2)cc1 [D]
